These results are taken from patent US20200288710A1, “SUBSTITUTED SULPHONAMIDES FOR CONTROLLING ANIMAL PESTS” (BAYER CROPSCIENCE AKTIENGESELLSCHAFT, priority 2016, published 2020).

Type in all cases: in vivo
In one test the test system is Meloidogyne incognita. Description: Meloidogyne incognita test. The conditions noted are these: 336 h, lettuce, after 14 days, read-out: nematicidal efficacy (formation of galls). Here is the method:
Meloidogyne incognita Test Solvent: 125.0 parts by weight of acetone To produce a suitable active compound preparation, 1 part by weight of active compound is mixed with the stated amount of solvent and the concentrate is diluted with water to the desired concentration. Vessels are filled with sand, active compound solution, an egg/larvae suspension of the southern rootknot nematode (Meloidogyne incognita) and lettuce seeds. The lettuce seeds germinate and the plants develop. The galls develop on the roots. After 14 days, the nematicidal efficacy in % is determined by the formation of galls. 100% means that no galls were found; 0% means that the number of galls on the treated plants corresponds to the untreated control.

Test [1] has as its system Myzus persicae. Description: Myzus persicae spray test (Chinese cabbage leaf discs). The conditions noted are these: foliar, 120 h, 500 g/ha, after 5-6 days, read-out: efficacy. In outline:
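Chinese cabbage leaf discs infested with all stages of green peach aphid were sprayed with compound formulated in acetone/DMF and emulsifier-containing water. Efficacy in % was scored after 5-6 days, with 100% meaning all aphids killed and 0% none killed.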

Test [2] relates to Myzus persicae. Description: Myzus persicae oral test. The conditions noted are these: 120 h, 20 ppm, oral uptake, after 5 days, read-out: efficacy. In outline: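 Compound dissolved in acetone, diluted in water, then mixed 50:150 μl with IPL41 insect medium (33%+15% sugar). Mixed-population green peach aphids feed through a parafilm seal on the solution; mortality scored as % efficacy after 5 days (100% = all killed).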

As for `Cc1ccccc1S(=O)(=O)NC(=O)c1cn(C)c(-c2c(F)cc(F)cc2F)n1` [Example 6], the pest or weed control at 20 ppm with Meloidogyne incognita turned out to be 100%. Moreover, the pest or weed control at 500 g/ha with Myzus persicae [1] came to 100%.
As to `Cn1cc(C(=O)NS(=O)(=O)c2cccc(Cl)c2)nc1-c1c(F)cc(F)cc1F` [Example 8], the pest or weed control at 20 ppm in the test with Meloidogyne incognita stood at 100%. The pest or weed control at 500 g/ha in the test on Myzus persicae [1] worked out at 90%.
In the same order, the values of `Cn1cc(C(=O)NS(=O)(=O)c2ccc(Cl)cc2)nc1-c1c(F)cc(F)cc1F` [Example 9] are 100% and 90%.
In the same order, the values of `CCOc1ccccc1S(=O)(=O)NC(=O)c1cn(C)c(-c2c(F)cccc2F)n1` [Example 16] are 90% and 90%.
Consider `COc1ccc(S(=O)(=O)NC(=O)c2cn(C)c(-c3ccccc3Cl)n2)cc1` [Example 34], for which the pest or weed control at 20 ppm in the test with Meloidogyne incognita came to 100%. Moreover, the pest or weed control at 500 g/ha with Myzus persicae [1] amounted to 90%.
In the same order, the values of `COc1ccc(S(=O)(=O)NC(=O)c2cn(C)c(-c3c(F)cccc3F)n2)cc1` [Example 47] are 100% and 90%.
In the same order, the values of `Cn1cc(C(=O)NS(=O)(=O)c2ccccc2)nc1-c1c(F)cccc1F` [Example 48] are 90% and 90%.
In the same order, the values of `CCS(=O)(=O)NC(=O)c1cn(C)c(-c2ccccc2Cl)n1` [Example 64] are 90% and 90%.
Take `CCn1cc(C(=O)NS(C)(=O)=O)nc1-c1ccccc1Cl` [Example 79]: the pest or weed control at 20 ppm in the test on Meloidogyne incognita worked out at 90%. Also, in the test with Myzus persicae [1], the pest or weed control at 500 g/ha was found to be 100%.
With `CCc1[nH]c(-c2ccc(F)cc2F)nc1C(=O)NS(=O)(=O)C(C)C` [Example 123], in the test with Meloidogyne incognita, the pest or weed control at 20 ppm came to 90%. The pest or weed control at 500 g/ha with Myzus persicae [1] is 90%.
On to `Cc1ccccc1S(=O)(=O)NC(=O)c1cc(C)n(-c2c(F)cccc2F)n1` [Example 139], for which the pest or weed control at 20 ppm in the test on Meloidogyne incognita was found to be 90%. Besides, the pest or weed control at 500 g/ha with Myzus persicae [1] is 90%.
Take `CC(C)CS(=O)(=O)NC(=O)c1cn(C)c(-c2c(F)cccc2F)n1` [Example 142]: the pest or weed control at 20 ppm with Meloidogyne incognita was found to be 90%. Also, in the test on Myzus persicae [1], the pest or weed control at 500 g/ha was determined as 100%.
In the same order, the values of `CC(C)S(=O)(=O)NC(=O)c1cn(C)c(-c2c(F)cccc2Cl)n1` [Example 149] are 90% and 90%.
Take `Cc1ccc(S(=O)(=O)NC(=O)c2cn(C)c(-c3c(F)cccc3F)n2)cc1` [Example 175]: the pest or weed control at 20 ppm with Meloidogyne incognita is 100%. The pest or weed control at 500 g/ha in the test on Myzus persicae [1] amounted to 90%.
In the same order, the values of `CC(C)S(=O)(=O)NC(=O)c1cn(C)c(-c2ccccc2Cl)n1` [Example 193] are 90% and 100%.
Consider `CCc1c(C(=O)NS(=O)(=O)c2ccccc2Cl)nc(-c2c(F)cccc2F)n1C` [Example 197], for which, in the test on Meloidogyne incognita, the pest or weed control at 20 ppm is 100%. In addition, in the test with Myzus persicae [1], the pest or weed control at 500 g/ha worked out at 90%.
For `CCc1cccc(OC)c1S(=O)(=O)NC(=O)c1cn(C)c(-c2c(F)cccc2F)n1` [Example 200], in the test with Meloidogyne incognita, the pest or weed control at 20 ppm was 100%. For the same compound, the pest or weed control at 500 g/ha with Myzus persicae [1] is 100%.
Take `CCc1[nH]c(-c2ccc(F)c(F)c2)nc1C(=O)NS(=O)(=O)c1ccccc1C` [Example 207]: in the test on Meloidogyne incognita, the pest or weed control at 20 ppm was found to be 90%. For the same compound, in the test on Myzus persicae [1], the pest or weed control at 500 g/ha amounted to 90%.
In the case of `COc1ccc(Cl)c(S(=O)(=O)NC(=O)c2cn(C)c(-c3ccccc3Cl)n2)c1` [Example 228], the pest or weed control at 20 ppm in the test on Meloidogyne incognita is 100%. Besides, the pest or weed control at 500 g/ha in the test with Myzus persicae [1] amounted to 100%.
As to `Cn1cc(C(=O)NS(=O)(=O)c2ccc(Cl)cc2)nc1-c1ccccc1Cl` [Example 230], the pest or weed control at 20 ppm in the test on Meloidogyne incognita was 100%. For the same compound, in the test on Myzus persicae [1], the pest or weed control at 500 g/ha came to 100%.
For the compound `COc1ccc(Cl)c(S(=O)(=O)NC(=O)c2nc(-c3ccccc3Cl)[nH]c2C)c1` [Example 239], the pest or weed control at 20 ppm in the test on Meloidogyne incognita amounted to 90%; in the test with Myzus persicae [2], 100%.
Turning to `Cc1ccccc1S(=O)(=O)NC(=O)c1cc(-c2ncccc2Cl)n(-c2ccccc2Cl)n1` [Example 265], the pest or weed control at 20 ppm in the test on Meloidogyne incognita and in the test on Myzus persicae [2] was 100% throughout.
With `COc1cc(C(=O)NS(=O)(=O)c2ccccc2C)nn1-c1ccccc1Cl` [Example 276], the pest or weed control at 20 ppm with Meloidogyne incognita and in the test with Myzus persicae [2] was 100% in each case.
`COc1ccccc1S(=O)(=O)NC(=O)c1nc(-c2c(F)cccc2F)c(C)n1C` [Example 310]: in the test with Meloidogyne incognita, the pest or weed control at 20 ppm was 100%. Moreover, the pest or weed control at 500 g/ha in the test with Myzus persicae [1] worked out at 90%.
In the case of `CCOc1c(Cl)cccc1S(=O)(=O)NC(=O)c1cn(C)c(-c2c(F)cccc2F)n1` [Example 314], the results for the pest or weed control at 20 ppm in the test on Meloidogyne incognita and in the test with Myzus persicae [2] were 90% and 100%, respectively.
In the case of `Cn1cc(C(=O)NS(=O)(=O)c2cccc(F)c2Cl)nc1-c1c(F)cccc1F` [Example 321], the pest or weed control at 20 ppm with Meloidogyne incognita is 90%. In addition, the pest or weed control at 500 g/ha in the test on Myzus persicae [1] worked out at 100%.
Take `CC(C)CS(=O)(=O)NC(=O)c1cn(C)c(-c2c(F)cccc2Cl)n1` [Example 325]: the pest or weed control at 20 ppm in the test with Meloidogyne incognita turned out to be 90%; in the test on Myzus persicae [2] it was 100%.
For the compound `CC(C)c1cccc(-c2nc(C(=O)NS(=O)(=O)c3ccccc3Br)cn2C)c1` [Example 330], the pest or weed control at 20 ppm in the test with Meloidogyne incognita and in the test on Myzus persicae [2] was 90% in each case.
In the case of `Cc1ccccc1S(=O)(=O)NC(=O)c1cn(C)c(-c2cccc(C(C)C)c2)n1` [Example 331], the pest or weed control at 20 ppm worked out at 90% with Meloidogyne incognita and 100% in the test on Myzus persicae [2].
As to `CCOc1cccc(CC)c1S(=O)(=O)NC(=O)c1cn(C)c(-c2c(F)cccc2F)n1` [Example 335], in the test with Meloidogyne incognita, the pest or weed control at 20 ppm came to 90%. Moreover, the pest or weed control at 500 g/ha in the test with Myzus persicae [1] amounted to 90%.
Turning to `Cn1cc(C(=O)NS(=O)(=O)c2ccc(Br)s2)nc1-c1c(F)cccc1F` [Example 353], the pest or weed control at 20 ppm with Meloidogyne incognita and with Myzus persicae [2] was 90% each time.
For `Cn1cc(C(=O)NS(=O)(=O)c2cc(Cl)sc2Cl)nc1-c1c(F)cccc1F` [Example 356], the pest or weed control at 20 ppm in the test on Meloidogyne incognita amounted to 90%. In the test on Myzus persicae [1], the pest or weed control at 500 g/ha was found to be 90%.
For `Cn1cc(C(=O)NS(=O)(=O)c2ccsc2)nc1-c1c(F)cccc1F` [Example 357], the pest or weed control at 20 ppm in the test on Meloidogyne incognita came to 90%. Moreover, the pest or weed control at 500 g/ha in the test on Myzus persicae [1] stood at 90%.
Take `COc1cccc(C)c1S(=O)(=O)NC(=O)c1cn(C)c(-c2c(F)cccc2F)n1` [Example 365]: the pest or weed control at 20 ppm in the test with Meloidogyne incognita turned out to be 90%. In addition, the pest or weed control at 500 g/ha in the test with Myzus persicae [1] was found to be 100%.
For the compound `CC(C)Sc1cccc(Cl)c1S(=O)(=O)NC(=O)c1cn(C)c(-c2c(F)cccc2F)n1` [Example 386], the pest or weed control at 20 ppm with Meloidogyne incognita turned out to be 90%; with Myzus persicae [2] it was 100%.
In the same order, the values of `COc1ccc(Cl)c(S(=O)(=O)NC(=O)c2c[nH]c(-c3c(F)cccc3F)n2)c1` [Example 411] are 90% and 100%.
Regarding `CCn1c(C(=O)NS(=O)(=O)c2ccccc2Cl)nc(-c2c(F)cccc2F)c1C` [Example 414], the pest or weed control at 20 ppm in the test on Meloidogyne incognita and in the test with Myzus persicae [2] was 100% throughout.
As to `CCn1c(C(=O)NS(=O)(=O)c2ccccc2OC)nc(-c2c(F)cccc2F)c1C` [Example 416], the pest or weed control at 20 ppm in the test on Meloidogyne incognita and in the test with Myzus persicae [2] was 90% each time.
`O=C(NS(=O)(=O)C1CC1)c1cc(-c2ncccc2Cl)n(-c2ccccc2Cl)n1` [Example 456]: the pest or weed control at 20 ppm with Meloidogyne incognita and with Myzus persicae [2] was 100% throughout.
For `Cc1cccc(C)c1-c1nc(C(=O)NS(=O)(=O)c2ccccc2Cl)cn1C` [Example 477], the pest or weed control at 20 ppm with Meloidogyne incognita and with Myzus persicae [2] was 90% in each case.
Take `CCc1ccccc1-c1nc(C(=O)NS(=O)(=O)c2ccccc2Cl)cn1C` [Example 496]: the pest or weed control at 20 ppm in the test on Meloidogyne incognita was 100%; with Myzus persicae [2], 90%.
In the same order, the values of `CCc1ccccc1-c1nc(C(=O)NS(=O)(=O)c2ccccc2OC)cn1C` [Example 498] are 90% and 100%.
For `Cn1cc(C(=O)NS(=O)(=O)c2ccccc2Cl)nc1-c1cc(Cl)ccc1Cl` [Example 511], the pest or weed control at 20 ppm in the test with Meloidogyne incognita and in the test on Myzus persicae [2] was 100% each time.
In the case of `Cc1ccccc1S(=O)(=O)NC(=O)c1cn(C)c(-c2ccccc2[N+](=O)[O-])n1` [Example 525], the pest or weed control at 20 ppm with Meloidogyne incognita and in the test on Myzus persicae [2] was 100% each time.
For `Cn1cc(C(=O)NS(=O)(=O)c2ccccc2Cl)nc1-c1ccccc1-c1ccccc1` [Example 532], the pest or weed control at 20 ppm was found to be 90% in the test on Meloidogyne incognita and 100% in the test with Myzus persicae [2].
In the same order, the values of `CCc1[nH]c(-c2ccc(Cl)cc2)nc1C(=O)NS(=O)(=O)c1ccccc1C` [Example 590] are 90% and 100%.
As for `COc1ccc(Cl)c(S(=O)(=O)NC(=O)c2nc(-c3ccc(Cl)cc3)[nH]c2C)c1` [Example 618], the pest or weed control at 20 ppm in the test with Meloidogyne incognita and with Myzus persicae [2] was 100% each time.
For `Cc1[nH]c(-c2ccccc2Cl)nc1C(=O)NS(=O)(=O)C(C)C` [Example 625], the pest or weed control at 20 ppm in the test with Meloidogyne incognita is 100%; in the test with Myzus persicae [2] it was 90%.
